# Values of other authors in patent publication US20040116514A1, “Compositions for preventing human cancer and method of preventing human cancer” (priority 2002, published 2004).
# Tested on: humans
# Details: β-carotene alone administered in large quantities to humans (Omenn et al., 1996)
smiles,measurement,value
CC1=C(/C=C/C(C)=C/C=C/C(C)=C/C=C/C=C(C)/C=C/C=C(C)/C=C/C2=C(C)CCCC2(C)C)C(C)(C)CCC1 [β-carotene],incidence rate of pulmonary cancer,actually rises
